The test system of assay [1] is protein kinase C. The experiment in a line: Direct assay for protein kinase C: phosphorylation of peptide substrate with (gamma 32P) ATP, phosphocellulose filter counting. In kind it is biochemical, rat. The procedure: The peptide substrate of the present invention may be employed to assay for the presence of protein kinase C, for instance, during the above-outlined process of preparing the enzyme. The assay is based on the phosphorylation of the peptide substrate by protein kinase C. In the assay, the sample to be tested is mixed together with the peptide substrate, radiolabeled ATP, Ca^2+, phospholipid and diacylglycerol. The mixture is incubated for only a brief period to insure linearity of the reaction and then spotted onto phosphocellulose filter paper. The level of radioactivity on the filter is measured, for instance by liquid scintillation spectrometry. The level of radiation is indicative of the extent to which the substrate has been phosphorylated, which in turn is indicative of the amount of protein kinase C present in the sample being assayed. As can be appreciated, by use of the peptide substrate for the present invention, the presence of protein kinase C may be conveniently and rapidly assayed.
Protein kinase C was prepared from the brains of eight rats each having a weight of from 150 to 200 grams. The rats are sacrificed by cervical dislocation. The brains of the rats are removed and placed in eight volumes of ice-cold buffer A (40 ml), composed of the following: 20 mM 4-(2-hydroxyethyl)-1-piperazineethanesulfonic acid ("HEPES"), pH 7.5; 0.3 M sucrose; 2 mM ethyl-enediaminetetracetic acid ("EDTA"); 10 mM ethylene glycol bis(B -aminoethylether)-N, N, N', N'-tetraacetic acid ("EGTA"); 2 mM dithiothreitol ("DDT"); 1 mM phenylmethylsulfonyl; 10 ug/ml pepstatin A; 10 ug/ml soybean tripsyn inhibitor; 10 ug/ml leupeptin; and 10 uM E-64 (Peninsula Labs). E 64 is an inhibitor of CA^2+ -activated proteases. The brains are homogenized with 5 strokes of teflon-glass homogenizer and centrifuged for one hour at 100,000×g in a Ti 75 rotor. The resulting supernatant is saved and adjusted to a conductivity of 0.7-0.9 mmho. […]

Assay [2] concerns protein kinase C. As to conditions: cited from earlier work.

“Also recorded” adds a separate entry of the source. Ends that are not written are not given here.

As to “LRRASLG [Kemptide, Leu-Arg-Arg-Ala-Ser-Leu-Gly]”, in the assay on protein kinase C [1] (peptide concentration 1 mM), the “reaction rate (rate of phosphorylation)” value amounted to 20 pmole PO4 /min. Further, the “Km (in words)” value in the assay on protein kinase C [1] (protein kinase C, no saturation at 3 mM) is recorded as “so high that it could not be determined; also recorded: too high to be determined”. The “saturation of protein kinase C with substrate” value in the assay on protein kinase C [1] (up to 3 mM peptide) is given as “not saturated; also recorded: will not saturate”.

The Km is the concentration of substrate that gives half-maximal velocity. For the substance RRKASGPPV, in the assay on protein kinase C [2] (peptide concentration 450 μM), the rate of reaction was 8 pmole PO4 /min. Further, in the assay with protein kinase C [2] (protein kinase C, O'Brian et al., read-out: Km of the reaction), the Km was 130 µM.

(Values after US4923802A, “Peptide substrates for the detection, characterization and purification of protein kinase C” (Immunex Corporation, priority 1985, dated 1990).)
